In ChEMBL document CHEMBL4732077, “Potent and orally active purine-based fetal hemoglobin inducers for treating β-thalassemia and sickle cell disease” (Eur J Med Chem, 2021):

Legend:
[1] = Induction of gamma-globin gene expression in human erythrocytes at 250 uM after 3 days by RT-PCR analysis relative to control; assay type: functional, Erythrocyte; conditions: time 3 day
[2] = Cytotoxicity against human erythrocytes assessed as cell viability after 3 days alamar blue assay; assay type: cell-based, Erythrocyte; conditions: time 3 day
[3] = Induction of gamma-globin gene expression in human erythrocytes at 0.625 uM after 3 days by RT-PCR analysis relative to control; assay type: functional, Erythrocyte; conditions: time 3 day
[4] = Cytotoxicity against human erythrocytes assessed as cell viability at 0.625 uM after 3 days alamar blue assay relative to control; assay type: cell-based, Erythrocyte; conditions: time 3 day, read-out: Activity
[5] = Induction of gamma-globin gene expression in human erythrocytes at 0.1 uM after 3 days by RT-PCR analysis relative to control; assay type: functional, Erythrocyte; conditions: time 3 day
[6] = Cytotoxicity against human erythrocytes assessed as cell viability at 0.1 uM after 3 days alamar blue assay relative to control; assay type: cell-based, Erythrocyte; conditions: time 3 day, read-out: Activity
[7] = Half life in Sprague-Dawley rat at 2 mg/kg, iv measured upto 24 hrs by LC-MS/MS analysis; assay type: ADME, organism-based; conditions: in vivo
[8] = Clearance in Sprague-Dawley rat at 2 mg/kg, iv measured upto 24 hrs by LC-MS/MS analysis; assay type: ADME, organism-based; conditions: in vivo
[9] = Volume of distribution at steady state in Sprague-Dawley rat at 2 mg/kg, iv measured upto 24 hrs by LC-MS/MS analysis; assay type: ADME, organism-based; conditions: in vivo, read-out: Vdss
[10] = AUC (0 to infinity) in Sprague-Dawley rat at 2 mg/kg, iv measured upto 24 hrs by LC-MS/MS analysis; assay type: ADME, organism-based; design: route intravenous, dose 2 mg/kg, time <=24; conditions: in vivo
[11] = Water solubility of compound at pH 7.4 after 24 hrs by LC/MS analysis; assay type: physicochemical; conditions: buffer, pH 7.4, 24 h
[12] = Induction of gamma-globin gene expression in human erythrocytes at 1.25 uM after 3 days by RT-PCR analysis relative to control; assay type: functional, Erythrocyte; conditions: time 3 day
[13] = Cytotoxicity against human erythrocytes assessed as cell viability at 1.25 uM after 3 days alamar blue assay relative to control; assay type: cell-based, Erythrocyte; conditions: time 3 day, read-out: Activity
[14] = Induction of gamma-globin gene expression in human erythrocytes at 0.4 uM after 3 days by RT-PCR analysis relative to control; assay type: functional, Erythrocyte; conditions: time 3 day
[15] = Cytotoxicity against human erythrocytes assessed as cell viability at 0.4 uM after 3 days alamar blue assay relative to control; assay type: cell-based, Erythrocyte; conditions: time 3 day, read-out: Activity
[16] = Induction of gamma-globin gene expression in human erythrocytes at 15 uM after 3 days by RT-PCR analysis relative to control; assay type: functional, Erythrocyte; conditions: time 3 day
[17] = Cytotoxicity against human erythrocytes assessed as cell viability at 15 uM after 3 days alamar blue assay relative to control; assay type: cell-based, Erythrocyte; conditions: time 3 day, read-out: Activity
[18] = Induction of gamma-globin gene expression in human erythrocytes at 5 uM after 3 days by RT-PCR analysis relative to control; assay type: functional, Erythrocyte; conditions: time 3 day
[19] = Cytotoxicity against human erythrocytes assessed as cell viability at 5 uM after 3 days alamar blue assay relative to control; assay type: cell-based, Erythrocyte; conditions: time 3 day, read-out: Activity
[20] = Induction of gamma-globin gene expression in human erythrocytes at 10 uM after 3 days by RT-PCR analysis relative to control; assay type: functional, Erythrocyte; conditions: time 3 day
[21] = Cytotoxicity against human erythrocytes assessed as cell viability at 10 uM after 3 days alamar blue assay relative to control; assay type: cell-based, Erythrocyte; conditions: time 3 day, read-out: Activity
[22] = Induction of gamma-globin gene expression in human erythrocytes at 0.83 uM after 3 days by RT-PCR analysis relative to control; assay type: functional, Erythrocyte; conditions: time 3 day
[23] = Cytotoxicity against human erythrocytes assessed as cell viability at 0.83 uM after 3 days alamar blue assay relative to control; assay type: cell-based, Erythrocyte; conditions: time 3 day, read-out: Activity

With `CCCC(=O)[O-].[Na+]` [SODIUM BUTYRATE] the “fold change (FC)” value [1] was 1.3 and the CC50 at 72 h [2] was 222 µM.
With `CCn1cnc2c(Nc3cccc(NC(=O)C#Cc4ccc(C)cc4)c3)nc(N3CCC(N(C)C)CC3)nc21.Cl.Cl` the “fold change (FC)” value [3] was 1.7 and the viability at 72 h, 0.625 µM [4] was 75%.
For `CCn1cnc2c(Nc3cccc(NC(=O)C#Cc4ccc(C)cc4)c3)nc(N[C@H]3CC[C@H](O)CC3)nc21`, the “fold change (FC)” value [5] was 1.4, the viability at 72 h, 0.1 µM [6] was 61% and the half-life [7] was 10.2 h. For the same compound, the clearance [8] was 60.9 mL/min/kg, the Vd [9] was 3.8 L/kg and the AUC(0-inf) [10] was 610 ng·h/mL. The solubility [11] was under 0.01 µg/mL.
In the case of `CCn1cnc2c(Nc3cccc(NC(=O)C#Cc4ccc(C)cc4)c3)nc(N3CCC(N(C)C)C3)nc21` (configuration not stated), the “fold change (FC)” value [12] is reported as 1.5 and the viability at 72 h, 1.25 µM [13] is reported as 53%.
In the case of `CCn1cnc2c(Nc3cccc(NC(=O)C#Cc4ccc(C)cc4)c3)nc(OCCN3CCOCC3)nc21`, the “fold change (FC)” value [14] is reported as 2.6 and the viability at 72 h, 0.4 µM [15] is reported as 78%.
In the case of `CCn1cnc2c(Nc3cccc(NC(=O)C#Cc4ccc(C)cc4)c3)ncnc21`, the “fold change (FC)” value [16] is reported as 4.1 and the viability at 72 h, 15 µM [17] is reported as 75%.
With `CCN1CCN(c2nc(Nc3cccc(NC(=O)[C@@H]4C[C@H]4c4ccccc4)c3)c3ncn(CC)c3n2)CC1` the “fold change (FC)” value [12] was 1.1 and the viability at 72 h, 1.25 µM [13] was 77%.
With `CCn1cnc2c(Nc3cccc(NC(=O)C#Cc4ccc(C)cc4)c3)nc(N3CCN(CCF)CC3)nc21.Cl.Cl` the “fold change (FC)” value [18] was 4.6 and the viability at 72 h, 5 µM [19] was 50%.
With `Cc1ccc(C#CC(=O)Nc2cccc(Nc3ncnc4oc(-c5ccccc5)nc34)c2)cc1` the “fold change (FC)” value [20] was 1.2 and the viability at 72 h, 10 µM [21] was 103%.
With `Cc1ccc(C#CC(=O)Nc2cccc(Nc3nc(N[C@H]4CC[C@H](O)CC4)nc4ccccc34)c2)cc1` the “fold change (FC)” value [12] was 1.8 and the viability at 72 h, 1.25 µM [13] was 46%.
For `CCn1cnc2c(Nc3cccc(NC(=O)C#Cc4ccc(C)cc4)c3)nc(N3CCN(CCO)CC3)nc21`, the “fold change (FC)” value [12] was 4.6 and the viability at 72 h, 1.25 µM [13] was 58%.
With `CCN1CCN(c2nc(Nc3cccc(C(=O)Nc4ccc(-c5ccccc5)cc4)c3)c3ncn(CC)c3n2)CC1` the “fold change (FC)” value [3] was 0.84 and the viability at 72 h, 0.625 µM [4] was 105%.
In the case of `CCN1CCN(c2nc(Nc3cccc(C(=O)N[C@@H]4C[C@H]4c4ccccc4)c3)c3ncn(CC)c3n2)CC1`, the “fold change (FC)” value [22] is reported as 1.3 and the viability at 72 h, 0.83 µM [23] is reported as 71%.
With `CCN1CCN(c2nc(Nc3cccc(NC(=O)/C=C/c4ccccc4)c3)c3ncn(CC)c3n2)CC1` the “fold change (FC)” value [12] was 2.3 and the viability at 72 h, 1.25 µM [13] was 128%.
With `Cc1ccc(C#CC(=O)Nc2cccc(Nc3nc(N[C@H]4CC[C@H](O)CC4)nc4scnc34)c2)cc1` the “fold change (FC)” value [20] was 0.87 and the viability at 72 h, 10 µM [21] was 19%.
With `CCN1CCN(c2nc(Nc3cccc(NC(=O)N4CCN(c5ccc(F)cc5)CC4)c3)c3ncn(CC)c3n2)CC1` the “fold change (FC)” value [20] was 2.2 and the viability at 72 h, 10 µM [21] was 8%.
